Earlier results in patent publication US7452858B2, “Treatment of gestational diabetes” (Amylin Pharmaceuticals, Inc., priority 1999, dated 2008).
Like-named read-outs stand apart in the source and are kept apart here. Where no end group is shown, it is not given here.

Assays:
[1] = mice, peripheral injection
[2] = rats, intracerebroventricular injection
cloned GLP-1 receptor = details: transfected cells

| Substance | effect on food intake [1] | effect on food intake [2] | action at the cloned GLP-1 receptor (cAMP) (cloned GLP-1 receptor) |
| --- | --- | --- | --- |
| GLP-1 [7-36]NH2 (HAEGTFTSDVSSYLEGQAAKEFIAWLVKGR-NH2) | does not inhibit food intake | inhibits food intake | – |
| exendin[9-39]: C-terminally truncated exendin peptide, a carboxyamidated molecule, reported antagonist of GLP-1 | – | – | antagonist |
